Results reported in article PMC7734281, “Functionalized Oxoindolin Hydrazine Carbothioamide Derivatives as Highly Potent Inhibitors of Nucleoside Triphosphate Diphosphohydrolases” (Frontiers in Pharmacology, 2020).
“Also recorded” adds a separate entry of the source.

Key:
mice pancreatic islets [1] = assay: Glucose stimulated insulin secretion in isolated mice islets (ELISA); assay type: cell-based, BALB/c mice; details: 16.7 mM glucose; for Effect on glucose stimulated insulin secretion: compound 200 µM, 1 h, 37°C
Description: Six to eight week old BALB/c mice, weighing 30–40 g, were used in the study. These mice were obtained from the animal house of COMSATS University Islamabad, Abbottabad Campus and placed under standard temperature (25 ± 2°C) and humidity (50–55%) conditions with an alternate 12-h light/dark cycle. All the experimental animals were provided with a continuous supply of food and water. The animals were handled according to internationally accepted guidelines of animal care and use. Moreover, this study was reviewed and approved by Research Ethics Committee, Department of Pharmacy, COMSATS University Islamabad, Abbottabad Campus. (Protocol number: PHM.Eth./CS-M01-020-1609)
The islets were isolated from mice pancreas as previously described, by a process involving collagenase digestion ([Hameed et al., 2018]). Briefly, mice were anesthetized with sodium thiopental (30 mg kg) and sacrificed by cervical dislocation to block the flow of blood. Immediately, mice were transferred to biological hood and their abdominal cavity was opened completely by making an incision on abdomen. In order to stop the bile flow toward duodenum, ampulla was located and clamped under dissection microscope. Then, distention of pancreas was carried out by injecting 3 ml of collagenase solution (1 mg/ml) through common bile duct. The distended pancreas was removed as a whole, transferred to a 50 ml tube and digested in collagenase solution at 37°C. After 15 min, digestion was stopped by placing the tube on ice and 20 ml of Hank’s Balanced Salt Solution (HBSS) was added to it. Thus the digested islets were washed with HBSS (two to three times) by centrifugation (1,000 rpm) for 1 min at 4°C. Finally, islets were purified by passing through a cell strainer (70 µm) and isolated manually (by hand picking) under stereomicroscope (Euromex, Arnhem, Netherlands). All the purification and isolation procedures were carried out in HBSS, containing no magnesium, calcium and phenol red.
Krebs-Ringer bicarbonate buffer (KRBB) was used as an incubation medium for islets and was composed of NaCl (118 mM), KCl (4.7 mM), CaCl2 (1.9 mM), MgSO4 (1.2 mM), NaHCO3 (25 mM), 4-(2-hydroxyethyl)-1-piperazineethanesulfonic acid (HEPES, 10 mM) and bovine serum albumin (0.1%). The pH of KRBB was maintained at 7.4. The isolated islets were size-matched and pre-incubated (3 islets/tube) for 45 min at 37°C in KRBB, supplemented with 3 mM glucose. Thereafter, incubation medium was replaced with fresh KRBB (containing 16.7 mM glucose) and islets were incubated for 60 min at 37°C with or without test substance(s). After incubation, supernatant was collected and stored at −40°C until further use. Finally, collected samples were properly diluted and insulin secretion was estimated with ultra-sensitive mouse insulin ELISA kit (Crystal Chem Inc., Downers Grove, United States) according to the manufacturer’s instructions. The absorbance was measured at 450 nm and insulin secretion was normalized for number of islets used. ([Hameed et al., 2018]).

[2] = tested on: ectonucleotidase activity in islets homogenate; assay: Ectonucleotidase activity of islet homogenate (malachite green, Pi release); assay type: biochemical, mice; details: for Effect on ectonucleotidase activity in islets homogenate: compound 100 µM, 100 µM ATP as substrate, versus control
Description: Islets were isolated and homogenized, according to the previously reported method ([Hedeskov and Capito, 1974]). After isolation, islets were washed thrice with HBSS and suspended in an ice-cold buffer containing sucrose (0.25 M), ethylenediaminetetraacetic acid (EDTA,1 mM) and tris-HCl (5 mM), maintained at pH 7.0. The resulting suspension was diluted with assay buffer, composed of tris-HCl (50 mM) and CaCl2 (5 mM). Afterward, these islets were sonicated for 30 s leading to disruption of islets and formation of a homogenate. Cellular debris was removed by centrifugation at 15,000 rpm for 10 min (4°C). The supernatant was collected and stored on ice. Protein concentration was estimated by Bradford method, using bovine serum albumin as reference standard ([Bradford, 1976]).
In order to determine the effect of compounds on ectonucleotidase activity in mice islets, standard curve based procedure was used where KH2PO4 was used as a standard. A stock solution of KH2PO4 (1 mM) was prepared in assay buffer that was used to prepare the working solutions of lower concentrations (0–100 µm). A standard curve was generated by incubating increasing concentration of KH2PO4 with buffer and malachite green reagent.
The assay was carried out in tris-buffer (pH 7.4) containing tris-HCl (50 mM) and CaCl2 (5 mM), as previously described ([Lavoie et al., 2010]). Compounds were dissolved in DMSO (10%) and tested at a concentration of 100 µM. The assay was started by adding 10 µl of test compound solution to 56 µl of assay buffer, followed by the addition of 6 µl of homogenate (i.e., 3 µg of protein). The mixture was incubated at 37°C for 10 min and then 10 µl of ATP (100 µM) was added to start the reaction. Reaction mixture was again placed in incubator at 37°C for 15 min and then reaction was stopped by adding 100 µl of trichloroacetic acid (10%). […] Finally, samples were mixed with malachite green reagent in an appropriate proportion and released Pi was determined by using standard curve. […] All the experiments were carried out in triplicate and enzyme activity was expressed as […] of Pi/min/mg of protein.

mice pancreatic islets [3] = assay: Glucose stimulated insulin secretion in isolated mice islets (ELISA); assay type: cell-based, BALB/c mice; details: basal glucose 3 mM
h-NTPDase8 = molecular target: T1, h-NTPDase8 (Homo sapiens, UniProt Q5MY95); assay: h-NTPDase8 inhibition, malachite green assay; assay type: biochemical; details: Lineweaver-Burk plot
T1 construct: made in house; host or cells: COS-7 cells, transient transfection; crude protein extract after sonication
T1 sequence (Q5MY95 1-495): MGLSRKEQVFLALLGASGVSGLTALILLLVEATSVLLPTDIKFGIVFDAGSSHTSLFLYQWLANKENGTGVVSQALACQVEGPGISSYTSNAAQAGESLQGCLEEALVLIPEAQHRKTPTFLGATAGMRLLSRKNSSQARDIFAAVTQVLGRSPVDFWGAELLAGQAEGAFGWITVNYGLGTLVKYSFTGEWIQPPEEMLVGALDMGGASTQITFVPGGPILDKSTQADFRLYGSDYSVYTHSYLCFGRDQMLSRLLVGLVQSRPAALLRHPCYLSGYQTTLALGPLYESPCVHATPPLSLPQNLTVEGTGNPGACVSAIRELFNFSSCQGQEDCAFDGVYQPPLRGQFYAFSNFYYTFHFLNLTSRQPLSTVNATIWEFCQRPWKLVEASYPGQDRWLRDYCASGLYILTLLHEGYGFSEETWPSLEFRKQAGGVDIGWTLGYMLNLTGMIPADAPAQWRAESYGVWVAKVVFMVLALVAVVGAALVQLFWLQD

Row | Structure (SMILES) | Dose-dependent effect on insulin secretion (mice pancreatic islets [1]; 10–200 µM) | Effect on glucose stimulated insulin secretion (mice pancreatic islets [1]) | Effect on ectonucleotidase activity in islets homogenate [2] | Dose response of ectonucleotidase activity in islet homogenate ([2]; different concentrations, 100 µM ATP, Pi release) | Effect on insulin secretion at basal glucose level (mice pancreatic islets [3]) | Mode of inhibition of h-NTPDase8 (h-NTPDase8)
1 | CCNC(=S)N/N=C1\C(=O)Nc2ccccc21 [8m, (Z)-N-ethyl-2-(2-oxoindolin-3-ylidene)hydrazine-1-carbothioamide] | dose dependent increase in insulin release; also recorded: dose dependent increase in insulin secretion | potently stimulated insulin secretion; also recorded: significant increase in glucose stimulated insulin secretion | significantly decreased the ectonucleotidase activity; also recorded: significantly reduced the enzyme activity; also recorded: significant reduction in ectonucleotidase activity; also recorded: significantly reduced ectonucleotidase activity | dose dependent decrease in enzyme activity | no effect on insulin secretion; also recorded: did not produce any significant effect | –
2 | Cc1ccc(C(=O)Nc2ccc(S(=O)(=O)O)c3cc(S(=O)(=O)O)cc(S(=O)(=O)O)c23)cc1NC(=O)c1cccc(NC(=O)Nc2cccc(C(=O)Nc3cc(C(=O)Nc4ccc(S(=O)(=O)O)c5cc(S(=O)(=O)O)cc(S(=O)(=O)O)c45)ccc3C)c2)c1 [Suramin, reference compound] | – | Neither suramin nor isatin had any significant effect | significantly reduced the enzyme activity | – | – | –
3 | O=C1Nc2ccccc2/C1=N/NC(=S)Nc1ccc(Cl)cc1 [8c, (Z)-N-(4-chlorophenyl)-2-(2-oxoindolin-3-ylidene)hydrazine-1-carbothioamide] | – | no significant effect on insulin secretion; also recorded: did not show any significant effect on insulin secretion | – | – | – | competitive
